The source of these data is ChEMBL document CHEMBL1811893, “Seco-eremophiladiolides and eremophilane glucosides from Pittocaulon velatum” (J Nat Prod, 2011).

This test deals with Rattus norvegicus. Nature of the test: Antiinflammatory activity in Lewis rat assessed as inhibition of TPA-induced ear edema. It counts as functional, organism-based.

The structures appear in SMILES notation. Calls of active or inactive are those of the source. No cut-off for these calls is given here.

In the case of `C/C(=C\O[C@@H]1O[C@H](CO)[C@@H](O)[C@H](O)[C@H]1O)[C@@H]1C[C@@]2(C)C(=CC1=O)CC[C@H](O)[C@@H]2C`, the result was inactive.
Take `C/C(=C\O[C@@H]1O[C@H](CO)[C@@H](O)[C@H](O)[C@H]1O)[C@@H]1C[C@@]2(C)C(=CC1=O)[C@H](O)CC[C@@H]2C`: the result was inactive.
The entry for `C/C(=C\O[C@@H]1O[C@H](CO)[C@@H](O)[C@H](O)[C@H]1O)[C@@H]1C[C@@]2(C)C(=CC1=O)CCC[C@@H]2C` is “inactive”; for `CC1=C([C@@H]2OC(=O)[C@@H]3CCC[C@H](C)[C@]32C)C(=O)OC1` it is “inactive”; for `CC1=C([C@H]2OC(=O)[C@@H]3CCC[C@H](C)[C@@]23C)C(=O)OC1` it is “inactive”.
The entry for `C/C(=C\O[C@@H]1O[C@H](CO)[C@@H](O)[C@H](O)[C@H]1O)[C@@H]1C[C@@]2(C)C(=CC1=O)CC[C@@H](O)[C@@H]2C` is “inactive”.
The entry for `Cc1coc2c1[C@@H](OCC(C)C)[C@]1(C)[C@@H](C)CCC[C@H]1C2=O` is “inactive”.
In the case of `C[C@H]1C[C@@H](O)C[C@H]2C(=O)c3occ(CO)c3[C@@H](O)[C@]12C`, the outcome was inactive.
On to `Cc1coc2c1[C@@H](OCC(C)C)[C@]1(C)[C@@H](C)CC[C@H]3O[C@]31C2=O`, for which the result was inactive.
